Our source for the IC50 values is US10265307B2, “Thiazolecarboxamides and pyridinecarboxamide compounds useful as Pim kinase inhibitors” (Incyte Corporation, priority 2013, dated 2019).

Structures are written as SMILES. pIC50: −log10 of the molar value.

Common to all, as to format: biochemical
Assay [1] concerns the target Pim-1 (Homo sapiens (Human), UniProt P11309). As to the kind of experiment: Pim-1 kinase assay. Particulars: 1 mM ATP; read-out: Pim1 IC50. On the procedure: Supplementation of the STOP buffer with beads and stopping the reactions were done under reduced light. Prior to the stopping reactions STOP buffer with beads was pre-incubated for 1 h in the dark at room temperature. After stopping the reactions, plates were incubated for 1 h in the dark at room temperature before reading on a PHERAstar FS plate reader (BMG Labtech) under reduced light.

The target of assay [2] is Pim-2 (Homo sapiens (Human), UniProt Q9P1W9). Briefly: Pim-2 kinase assay. Particulars: 1 mM ATP; read-out: Pim2 IC50. The method, then: Pim-2 kinase assay-20 μL reactions were run in white 384 well polystyrene plates dotted with 0.8 μL compound/DMSO in the assay buffer (50 mM Tris, pH 7.5, 0.01% Tween-20, 5 mM MgCl2, 0.01% BSA, 5 mM DTT), containing 0.05 μM Fluorescein-labeled CREBtide peptide substrate (Invitrogen PV3508), 1 mM ATP, and 1 nM enzyme (Invitrogen PV3649) for 2 h at 25° C. Reactions were stopped by addition of 10 μL TR-FRET Dilution Buffer (Invitrogen PV3574) with 30 mM EDTA and 1.5 nM LanthaScreen Tb-CREB pSer133 antibody (Invitrogen PV3566). After 30 min. incubation at room temperature, plates were read on a PHERAstar FS plate reader (BMG Labtech).
Although the above in vitro assays are conducted at 1 mM ATP compounds can also be evaluated for potency and in vitro activity against PIM targets utilizing Km conditions, where the concentration of ATP is set to the Km value and the assay is more sensitive to PIM inhibition activity.

Assay [3] deals with Pim-3 (Homo sapiens (Human), UniProt Q86V86). As to the kind of experiment: Pim-3 kinase assay. The note with it: 1 mM ATP; read-out: Pim3 IC50. On the procedure: Pim-1 and Pim-3 kinase assays-20 μL reactions were run in white 384 well polystyrene plates dotted with 0.8 μL compound/DMSO in the assay buffer (50 mM Tris, pH 7.5, 0.01% Tween-20, 5 mM MgCl2, 0.01% BSA, 5 mM DTT), containing 0.05 μM Biotin-labeled BAD peptide substrate (AnaSpec 62269), 1 mM ATP, and […] (Pim-1, Invitrogen PV3503) or […] (Pim-3, Millipore 14-738) enzyme for 1 h at 25° C. Reactions were stopped by addition of 10 μL STOP Buffer (150 mM Tris, pH=7.5, 150 mM NaCl, 75 mM EDTA, 0.01% Tween-20, 0.3% BSA) supplemented with Phospho-Bad (Ser112) Antibody (Cell Signaling 9291) diluted 666-fold, and Streptavidin donor beads (PerkinElmer 6760002) along with Protein-A acceptor beads (PerkinElmer 6760137) at 15 μg/mL each. Supplementation of the STOP buffer with beads and stopping the reactions were done under reduced light. Prior to the stopping reactions STOP buffer with beads was pre-incubated for 1 h in the dark at room temperature. After stopping the reactions, plates were incubated for 1 h in the dark at room temperature before reading on a PHERAstar FS plate reader (BMG Labtech) under reduced light.

Sequence of Pim-1 (P11309 whole entry): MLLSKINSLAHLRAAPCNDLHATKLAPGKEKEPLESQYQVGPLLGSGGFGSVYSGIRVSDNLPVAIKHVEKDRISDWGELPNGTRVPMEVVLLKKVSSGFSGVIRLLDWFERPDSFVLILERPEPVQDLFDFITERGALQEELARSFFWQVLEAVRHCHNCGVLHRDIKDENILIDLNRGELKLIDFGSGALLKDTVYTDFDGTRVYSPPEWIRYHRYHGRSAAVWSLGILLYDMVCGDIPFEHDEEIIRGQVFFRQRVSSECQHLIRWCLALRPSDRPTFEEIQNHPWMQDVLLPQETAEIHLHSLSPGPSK
Sequence of Pim-2 (Q9P1W9 whole entry): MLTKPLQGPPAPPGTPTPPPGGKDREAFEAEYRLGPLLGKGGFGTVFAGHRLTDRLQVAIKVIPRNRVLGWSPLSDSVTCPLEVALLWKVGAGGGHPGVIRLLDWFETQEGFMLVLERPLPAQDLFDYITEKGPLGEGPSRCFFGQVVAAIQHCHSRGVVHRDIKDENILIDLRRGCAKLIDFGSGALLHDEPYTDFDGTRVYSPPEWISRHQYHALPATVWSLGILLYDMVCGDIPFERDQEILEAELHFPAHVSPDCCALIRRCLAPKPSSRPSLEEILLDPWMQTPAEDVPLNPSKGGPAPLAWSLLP

Take `N[C@H]1CCCN(c2c(NC(=O)c3ccc(F)c(-c4c(F)cccc4F)n3)cnc3c2CCO3)C1` [Example 11, N-{4-[(3S)-3-Aminopiperidin-1-yl]-2,3-dihydrofuro[2,3-b]pyridin-5-yl}-6-(2,6-difluorophenyl)-5-fluoropyridine-2-carboxamide]: the pIC50 is ≥ 7.00 in assay [1], 6.00 to 7.00 in assay [2] and ≥ 7.00 in assay [3].
With `C[C@H]1CN(c2c(NC(=O)c3ccc(F)c(-c4c(F)cccc4F)n3)cnc3c2CCC3O)C[C@@H](N)C1(C)O` (single isomer, unassigned) [63 (Diastereoisomer 4)], the pIC50 in assay [1], in assay [2] and in assay [3] was ≥ 7.00 in each case.
`COc1ccc(F)c(-c2nc(C(=O)Nc3cnc4c(c3N3C[C@@H](N)[C@H](O)[C@@H](C)C3)CCO4)ccc2F)c1F` [Example 74, N-{4-[(3R,4R,5S)-3-Amino-4-hydroxy-5-methylpiperidin-1-yl]-2,3-dihydrofuro[2,3-b]pyridin-5-yl}-6-(2,6-difluoro-3-methoxyphenyl)-5-fluoropyridine-2-carboxamide]: the pIC50 in assay [1], in assay [2] and in assay [3] was ≥ 7.00 in each case.
As to `N[C@H]1CCCN(c2c(NC(=O)c3csc(-c4c(F)cccc4F)n3)cnc3ccsc23)C1` [Example 6, N-{7-[(3S)-3-Aminopiperidin-1-yl]thieno[3,2-b]pyridin-6-yl}-2-(2,6-difluorophenyl)-1,3-thiazole-4-carboxamide], the values for the pIC50 in assay [1], in assay [2] and in assay [3] were ≥ 7.00, < 5.70 and ≥ 7.00, respectively.
`C[C@H]1CN(c2c(NC(=O)c3nc(-c4c(F)cccc4F)c(F)cc3N)cnc3c2CCC3O)C[C@@H](N)[C@@H]1O` (single isomer, unassigned) [48 (Diastereoisomer 2)]: the pIC50 in assay [1], in assay [2] and in assay [3] was ≥ 7.00 in each case.
Turning to `C[C@@H]1C[C@H](N)CN(c2c(NC(=O)c3ccc(F)c(-c4c(F)cc(OC5CCCOC5)cc4F)n3)cnc3c2CCC3O)C1` (single isomer, unassigned) [70 (Diastereoisomer 2)], the pIC50 in assay [1], in assay [2] and in assay [3] was ≥ 7.00 each time.
Regarding `CC(C)(O)c1cc(F)c(-c2nc(C(=O)Nc3cnc4c(c3N3C[C@@H](N)C[C@@H](C(F)(F)F)C3)CCC4O)ccc2F)c(F)c1` (single isomer, unassigned) [72 (Diastereoisomer 1)], the pIC50 in assay [1], in assay [2] and in assay [3] was ≥ 7.00 in each case.
Take `Nc1sc(-c2c(F)cccc2F)nc1C(=O)Nc1cnc2[nH]ccc2c1N1CCC[C@H](N)C1` [Example 7, 5-Amino-N-{4-[(3S)-3-aminopiperidin-1-yl]-1H-pyrrolo[2,3-b]pyridin-5-yl}-2-(2,6-difluorophenyl)-1,3-thiazole-4-carboxamide]: the pIC50 in assay [1], in assay [2] and in assay [3] was ≥ 7.00 each time.
`N[C@H]1CCCN(c2c(NC(=O)c3ccc(F)c(-c4c(F)cccc4F)n3)cnc3c2CCC3)C1` [Example 21, N-{4-[(3S)-3-Aminopiperidin-1-yl]-6,7-dihydro-5H-cyclopenta[b]pyridin-3-yl}-6-(2,6-difluorophenyl)-5-fluoropyridine-2-carboxamide]: the pIC50 in assay [1], in assay [2] and in assay [3] was ≥ 7.00 each time.
Take `CC1(N)CCCN(c2c(NC(=O)c3nc(-c4c(F)cccc4F)sc3N)cnc3c2CCC3)C1` (stereo not drawn) [Example 57, 5-Amino-N-[4-(3-amino-3-methylpiperidin-1-yl)-6,7-dihydro-5H-cyclopenta[b]pyridin-3-yl]-2-(2,6-difluorophenyl)-1,3-thiazole-4-carboxamide]: the pIC50 in assay [1] is ≥ 7.00; in assay [2], 6.00 to 7.00; in assay [3], ≥ 7.00.

Usually pIC50 stands for the IC50 on a negative log10 scale, so that one unit is a factor of ten.
